Results as given in patent publication US6737406B1, “Cryptic peptides and method for their identification” (Circassia, Ltd., priority 1996, dated 2004).

Assays:
T lymphocytes = assay: Inhibition of T cell proliferation to FC1P peptides, tritiated thymidine incorporation (Example 5); assay type: cell-based; settings: added at 10^−6M or 10^−9M; freshly isolated T lymphocytes cultured with FC1P
Description: Freshly isolated T lymphocytes were cultured in vitro with concentrations of FC1P peptides, previously determined as being optimal for the induction of proliferative and/or other responses in these cells. To certain of the culture wells were added, the glucocorticosteroid Dexamethazone or fluticazone, these were added to cultures at dilutions of 10^−6M or 10^−9M. After culture, cells were labelled with tritiated thymidine to enable quantification of DNA synthesis and thus cellular proliferation.

[1] = test system: peripheral blood mononuclear cells; assay: Primary proliferative response of freshly isolated PBMC to FC1P (Example 3); assay type: cell-based, human; settings: 10^5 cells per well, 6 days, cat allergic asthmatics (CAA) compared with non-cat allergic asthmatics (NCA)
Description: Freshly isolated peripheral blood mononuclear cells were cultured at 10^5 cells per well for 6 days prior to labelling with tritiated thymidine for measurement of cellular proliferation.

[2] = test system: volunteer cat-allergic asthmatic; assay: Intradermal injection of FC1P into a volunteer cat-allergic asthmatic, lung function (Example 4); assay type: in vivo, human; settings: 40 μg FC1P intradermally into each forearm
Description: 40 μg of highly purified FC1P peptides was injected intradermally into each forearm of a volunteer cat-allergic asthmatic. […] The drop in FEV1 was reversed by the administration of β2 agonist and inhaled corticosteroid at 8 hours. The results of this are shown diagrammatically in FIG. 6.

Row | Molecule | inhibition of T cell proliferation to FC1P peptides (tritiated thymidine incorporation) (T lymphocytes) | primary proliferative responses (cellular proliferation, tritiated thymidine) [1] | late-phase asthmatic reaction ([2]; cat-allergic asthmatic) | time of late-phase asthmatic reaction after administration ([2]; cat-allergic asthmatic) | Lung function (quantified as FEV1) ([2]; over the next several hours)
1 | C[C@@H]1C[C@H]2[C@@H]3CCC4=CC(=O)C=C[C@]4(C)[C@@]3(F)[C@@H](O)C[C@]2(C)[C@@]1(O)C(=O)CO [dexamethazone] | inhibition of T cell proliferation | – | – | – | –
2 | C[C@@H]1C[C@H]2[C@@H]3C[C@H](F)C4=CC(=O)C=C[C@]4(C)[C@@]3(F)[C@@H](O)C[C@]2(C)[C@@]1(O)C(=O)SCF [fluticazone] | inhibition of T cell proliferation | – | – | – | –
3 | FC1P: three synthetic peptides derived from the sequence of Fel d I, collectively FC1P (SEQ ID NO:23, 5 and 24) (chain 1 LFLTGTPDEYVEQVAQY; chain 2 EQVAQYKALPVVLENA; chain 3 KALPVVLENARILKNCV; listed as Felis domesticus) | – | greater primary proliferative responses | induced an isolated late-phase asrimatic reaction | approximately three | fell and remained low
